Earlier results in patent publication US10064816B2, “Treatment of sexual dysfunction” (ReJoy, priority 2015, dated 2018).

Tested on: arrector pili muscle
Conditions: 1% w/v, iontophoresis

Q: Which “piloerection on the forearm” value does the source give for `CNC[C@H](O)c1cccc(O)c1` [phenylephrine] here?
A: The value was “can activate the piloerection”.
